Measurements taken from BindingDB's records for doi:10.1016/0960-894X(96)00399-X (1996).

Biological target: Inositol 1,4,5-trisphosphate receptor type 1 (Rattus norvegicus)
Experiment: Compound was tested for inhibition of specific [3H]Ins(1,4,5)P3 binding to Inositol 1,4,5-trisphosphate receptor in rat cerebellar membranes.

IC50: 27 nM
SMILES: O=P(O)(O)OC1C(O)C(CO)C(OP(=O)(O)O)C(OP(=O)(O)O)C1O [Phosphoric acid mono-((3S,5R,6R)-3,5-dihydroxy-2-hydroxymethyl-4,6-bis-phosphonooxy-cyclohexyl) ester]
